≈ marks a conversion by molar mass, not a printed value.
Experiments:
[1] = test system: C. albicans, Fluconazole, Voriconazole, Itraconazole and/or Caspofungin resistant isolates; assay: Susceptibility of resistant clinical isolates (MIC, broth dilution); format: cell-based; details: for MIC90: Candida albicans
[2] = test system: C. glabrata, Fluconazole, Voriconazole, Itraconazole and/or Caspofungin resistant isolates; assay: as above; format: cell-based; details: for MIC90: Nakaseomyces glabratus
Protocol: The efficacy of compound IV″ was investigated on 563 clinical isolates of 33 human fungal pathogens. […] For species with n≧10, the MIC90 (MIC, minimal inhibitory concentration) is given as ng/ml. For species with n≦10, the MIC range is given as ng/ml. 24 h and 48 h reads are indicated (Table 1).
The MIC90 was calculated for the indicated species.

Row | SMILES | MIC90 [1] [µg/mL] | MIC90/MIC range 48 h ([1]; resistant C. albicans isolates (n = 20), MIC90, 48 h) [µg/mL] | MIC90 [2] [µg/mL] | MIC90/MIC range 48 h ([2]; resistant C. glabrata isolates (n = 21), MIC90, 48 h) [µg/mL]
1 | O=C([O-])CCCCCCC/C=C\C#CC#Cc1ccco1.[K+] [Compound IV″, potassium (Z)-14-(furan-2-yl)tetradeca-9-en-11,13-diynoate] | 0.0025 | 0.0025 | 0.02 | 0.02
2 | C[C@@H](c1ncncc1F)[C@](O)(Cn1cncn1)c1ccc(F)cc1F [Voriconazole] | > 0.5 |  | 0.5 (≈ 1.43 µM) | 
